Laboratory results reported in patent EP0304244A2, “Propanediol derivatives, their production and use” (Takeda Chemical Industries, Ltd., priority 1987, dated 1989).

Assays:
[1] = system: Sarcoma 180 cells; test: Antitumor action, intraperitoneal Sarcoma 180 in mice, life-span and survivors; assay type: in vivo; conditions: ICR mice, 1 x 10⁵ Sarcoma 180 cells i.p.; for Life-span prolonggation ratio (T/C,%): 0.33 mg/mouse i.p. three times (1 hour, 1 day, 2 days after inoculation), calculated only on died mice; for 60th day number of survivors/number of mice tested: 0.33 mg/mouse i.p. three times, 60th day after the initiation of the test
Description: ICR mice (a group consisting of 5 mice) were inoculated intraperitoneally with 1 x 10⁵ Sarcoma 180 cells per mouse. Then, 0.33 mg/mouse of a compound dissolved in physiological saline was intraperitoneally administered three times, i.e. 1 hour, 1 day and 2 days after the inoculation. Shown in Table 2 are the lifespan prolongation ratio against the control group without treatment and the number of surviving mice on the 60th day after the initiation of the test.

[2] = system: HL-60 cells (myelogenous leukemia cell lines); test: Inhibition of multiplication of HL-60 cells ([3H]thymidine incorporation); assay type: cell-based; conditions: Homo sapiens; HL-60 cells 2 x 10⁵cells/mℓ in GIT medium; 20 hours incubation then 4 hours with [³H]thymidine; 50% of the control group; read-out: Inhibition of Propagation of HL-60 cells(IC₅₀ : µg/mℓ)
Description: The effect of the compound of this invention in inhibiting multiplication of myelogenous leukemia cells (HL-60) is shown in Table 1. The assay was conducted as follows. HL-60 cells (myelogenous leukemia cell lines) were suspended (2 x 10⁵cells/mℓ) in a GIT culture medium (Wako Pure Chemical Industries, Ltd.). Each hole of a 96-hole Microwell plate was inoculated with 0.2 mℓ of the suspension. The plate was incubated statically for 20 hours (37°C and 5% CO₂), to which was added 1 µCi of [³H]thymidine(5 Ci/mmol.), and the incubation was continued for further 4 hours. For determination of the amount of thymidine incorporated into cells, acid-insoluble fractions were collected with a glass-filter, and the radioactivity was determined by means of a liquid scintillation counter. The concentration of the drug required for reducing the radioactivity incorporated into cells to 50% of the control group was assumed to be IC₅₀ value of the compound.

[3] = system: MM46 cells; test: Antitumor action, intraperitoneal MM46 in mice, life-span and survivors; assay type: in vivo; conditions: C3H/He mice, 1 x 10⁴ MM46 cells i.p.; 0.25 mg/mouse for 4 consecutive days from the second day after inoculation; 60th day after inoculation
Description: C3H/He mice (a group consisting of 5 mice) were inoculated intraperitoneally with 1 x 10⁴ MM46 cells per mouse, and given 0.25 mg/mouse of a drug for 4 consecutive days starting from the second day after the inoculation. Shown in Table 3 are the life-span prolongation ratio against the control group without treatment (provided that calculation was made on mice whose survival days were not longer than 60 days) and the number of surviving mice on the 60th day after the inoculation of MM46 cells.

[4] = system: Sarcoma 180 cells; test: Antitumor action, subcutaneous Sarcoma 180 in mice, oral dosing, tumor weight; assay type: in vivo; conditions: ICR mice, 1 x 10⁵ Sarcoma 180 cells in dorsal subcutis; 0.3 mg/mouse orally 9 times from the 8th day; tumor weighed on the 21st day
Description: ICR mice (a group consisting of 6 mice) were inoculated with 1 x 10⁵ Sarcoma 180 cells per mouse in the dorsal subcutis, and then 0.3 mg/mouse of a test compound dissolved in physiological saline was orally administered 9 times starting from the 8th day (8th to 10th, 13th to 17th and 20th days). On the 21st day, a tumor was enucleated, and the weight of the tumor was measured. The ratio of tumor weight of the treated group against that of the control group without treatment by drug is shown in Table 4.

| IC50 [2] | SMILES | Life-span prolonggation ratio (T/C,%) [1] | 60th day number of survivors/number of mice tested [1] | 60th day No. of survivors/No. of mice tested [3] | Weight of tumor (T/C,%) [4] |
| --- | --- | --- | --- | --- | --- |
| 5 µg/mL | CCCCCCCCCCCCCCCCCCOCCCOCCCCCCCC[N+](C)(C)C.[Cl-] [Compound of Working Example 5, N-[8-[3-(octadecyloxy)propoxy]octyl]N,N,N-trimethylammonium chloride] |  |  |  |  |
| 1.25 µg/mL | CCCCCCCCCCCCCCCCCCOCCCOCCCCC[n+]1ccccc1.[Cl-] [Compound of Working Example 8, N-[5-[3-(octadecyloxy)propoxy]pentyl]pyridinium chloride] |  |  |  |  |
| 1.25 µg/mL | CCCCCCCCCCCCCCCCCCOCCCOCCC[N+](C)(C)C.[Br-] [Compound of Working Example 4, 3-[3-(octadecyloxy)propoxy]propyl-N,N,N-trimethylammonium bromide] |  |  |  |  |
| 2.5 µg/mL | CCCCCCCCCCCCCCCCCCOCCCOCCCCC[N+](C)(C)C.[Cl-] [Compound of Working Example 7, N-[5-[3-(octadecyloxy)propoxy]pentyl]N,N,N-trimethylammonium chloride] |  |  |  |  |

| SMILES | IC50 [2] | Life-span prolonggation ratio (T/C,%) [1] | 60th day number of survivors/number of mice tested [1] | 60th day No. of survivors/No. of mice tested [3] | Weight of tumor (T/C,%) [4] |
| --- | --- | --- | --- | --- | --- |
| CCCCCCCCCCCCCCCCCCOCCCOCCCC[N+](C)(C)C.CS(=O)(=O)[O-] [Compound of Working Example 1, N-[4-[3-(octadecyloxy)propoxy]butyl]N,N,N-trimethylammonium methanesulfonate] | 1.25 µg/mL | 295% | 2/5 | 5/5 |  |
| CCCCCCCCCCCCCCCCCCOCCCOCCCC[n+]1ccccc1.CS(=O)(=O)[O-] [Compound of Working Example 2, N-[4-[3-(octadecyloxy)propoxy]butyl]pyridinium methanesulfonate] | 0.62 µg/mL |  |  |  |  |
| CCCCCCCCCCCCCCCCCCOCCCOCCCCCC[N+](C)(C)C.[Br-] [Compound of Working Example 3, 6-[3-(octadecyloxy)propoxy]hexyl-N,N,N-trimethylammonium bromide] | 1.25 µg/mL | 342% | 2/5 |  | 24% |
